Assay results taken from patent US6696484B2, “Method and compositions for regulation of 5-alpha reductase activity” (University of Chicago Office of Technology and Intellectual …, priority 1997, dated 2004).

Molecular target: T1, type 1 human 5α-reductase (Homo sapiens, UniProt P18405)
T1 sequence (P18405 1-259): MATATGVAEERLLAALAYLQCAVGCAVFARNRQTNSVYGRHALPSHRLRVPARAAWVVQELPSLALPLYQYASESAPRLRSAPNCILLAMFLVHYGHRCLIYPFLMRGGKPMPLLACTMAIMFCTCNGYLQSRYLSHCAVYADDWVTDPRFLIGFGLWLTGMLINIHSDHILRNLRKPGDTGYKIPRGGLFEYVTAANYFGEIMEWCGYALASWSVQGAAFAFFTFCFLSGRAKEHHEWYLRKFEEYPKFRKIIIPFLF
Assay: Cell-free enzymatic assay of 5α-reductase (testosterone to DHT), type 1
Conditions: 100 μM compound

Row | percent inhibition of 5α-reductase activity, cell-free assay, Type 1 [%] | Compound
1 | 23 | COc1cc(CCC(=O)CC(=O)CCc2ccc(O)cc2)ccc1O [Demethoxytetrahydrocurcumin, demethoxytetrahydrocurcumin]
2 | 99 | cis or traps-9,11 or 10,12 octadecadienoic acid [Conjugated Octadecadienonic Acid]

Same assay, conditions: read-out: Cell-free assay IC50, 5α-reductase Type 1; microsomes from rat 1A cells expressing human type 1 5α-reductase

Row | IC50 [µM] | Compound
3 | 10 | cis or traps-9,11 or 10,12 octadecadienoic acid [Conjugated Octadecadienonic Acid]

Same assay, conditions: read-out: percent inhibition of 5α-reductase activity, cell-free assay, Type 1, 100 μM compound

Row | Compound | inhibition at 100 µM [%]
4 | O=c1cc(-c2ccccc2)oc2cc(O)cc(O)c12 [Chrysin] | 2
5 | COc1cc(/C=C/CO)ccc1O [Coniferol, coniferyl alcohol] | 10
6 | CCCCC/C=C\C/C=C\CCCCCCCC(=O)O [Linoleic Acid, Linoleic Acid C18:2 CIS 9,12] | 99
7 | O=c1c(O)c(-c2ccc(O)cc2O)oc2cc(O)cc(O)c12 [Morin] | 6
8 | O=C1c2ccccc2C(=O)c2c(O)c(O)cc(O)c21 [Purpurin] | 95
9 | O=c1c(O)cccc2cc(O)c(O)c(O)c12 [Purpurogallin] | 81
10 | O=c1ccc2c(-c3ccccc3S(=O)(=O)O)c3ccc(O)c(O)c3oc-2c1O [Pyrogallol red, pryrogallolsulfonephthalein] | 97
11 | C[C@@H]1O[C@@H](OC[C@H]2O[C@@H](Oc3c(-c4ccc(O)c(O)c4)oc4cc(O)cc(O)c4c3=O)[C@H](O)[C@@H](O)[C@@H]2O)[C@H](O)[C@H](O)[C@H]1O [Rutin] | 4

Molecular target: T2, type 2 human 5α-reductase (Homo sapiens, UniProt P31213)
T2 sequence (P31213 1-254): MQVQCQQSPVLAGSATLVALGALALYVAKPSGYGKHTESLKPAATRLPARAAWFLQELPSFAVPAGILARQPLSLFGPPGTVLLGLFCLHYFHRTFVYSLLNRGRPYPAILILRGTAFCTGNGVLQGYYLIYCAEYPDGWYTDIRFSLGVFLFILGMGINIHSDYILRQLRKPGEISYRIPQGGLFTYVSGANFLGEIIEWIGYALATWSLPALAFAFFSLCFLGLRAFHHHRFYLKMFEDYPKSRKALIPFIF
Assay: Cell-free enzymatic assay of 5α-reductase (testosterone to DHT), type 2
Format: biochemical
Parameters: expressed in transfected cells; host or cells: rat 1A cells infected with pMV7 retrovirus and selected with G418; microsomes for the cell-free assay
Conditions: 100 μM compound

Row | percent inhibition of 5α-reductase activity, cell-free assay, Type 2 [%] | Compound
12 | 81 | cis or traps-9,11 or 10,12 octadecadienoic acid [Conjugated Octadecadienonic Acid]

Same assay, conditions: microsomes from rat 1A cells expressing human type 2 5α-reductase; read-out: Cell-free assay IC50, 5α-reductase Type 2

Row | Compound | IC50 [µM]
13 | O=C1C=CC(=C(c2ccc(O)c(O)c2)c2ccccc2S(=O)(=O)O)C=C1O (mixture of isomers) [Pyrocatechol violet, pyrocatecholsulfonephthalein] | 100
14 | COc1cc(/C=C/CO)ccc1O [Coniferol, coniferyl alcohol] | 100
15 | C=CCc1ccc(O)c(OC)c1 [Eugenol] | 100
16 | cis or traps-9,11 or 10,12 octadecadienoic acid [Conjugated Octadecadienonic Acid] | 30

Same assay, conditions: read-out: percent inhibition of 5α-reductase activity, cell-free assay, Type 2, 100 μM compound

Row | Compound | inhibition at 100 µM [%]
17 | O=c1cc(-c2ccccc2)oc2cc(O)cc(O)c12 [Chrysin] | 1
18 | COc1cc(/C=C/CO)ccc1O [Coniferol, coniferyl alcohol] | 49
19 | CCCCC/C=C\C/C=C\CCCCCCCC(=O)O [Linoleic Acid, Linoleic Acid C18:2 CIS 9,12] | 85
20 | O=c1c(O)c(-c2ccc(O)cc2O)oc2cc(O)cc(O)c12 [Morin] | 33
21 | O=C1c2ccccc2C(=O)c2c(O)c(O)cc(O)c21 [Purpurin] | 20
22 | O=c1c(O)cccc2cc(O)c(O)c(O)c12 [Purpurogallin] | 31
23 | O=c1ccc2c(-c3ccccc3S(=O)(=O)O)c3ccc(O)c(O)c3oc-2c1O [Pyrogallol red, pryrogallolsulfonephthalein] | 27
24 | C[C@@H]1O[C@@H](OC[C@H]2O[C@@H](Oc3c(-c4ccc(O)c(O)c4)oc4cc(O)cc(O)c4c3=O)[C@H](O)[C@@H](O)[C@@H]2O)[C@H](O)[C@H](O)[C@H]1O [Rutin] | 0

Molecular target: T2, type 2 human 5α-reductase
Assay: Whole-cell assay of 5α-reductase, type 2
Format: cell-based
Parameters: expressed in transfected cells; host or cells: rat 1A cells infected with pMV7 retrovirus and selected with G418; intact cells for the whole-cell assay
Conditions: read-out: percent inhibition of 5α-reductase activity, whole-cell assay, Type 2; 100 μM compound

Row | Compound | inhibition at 100 µM [%]
25 | CCCCC/C=C\C/C=C\CCCCCCCC(=O)O [Linoleic Acid, Linoleic Acid C18:2 CIS 9,12] | 77

Molecular target: T1, type 1 human 5α-reductase
Assay: Whole-cell assay of 5α-reductase, type 1
Format: cell-based
Parameters: expressed in transfected cells; host or cells: rat 1A cells infected with pMV7 retrovirus and selected with G418; microsomes for the cell-free assay, intact cells for the whole-cell assay
Conditions: 100 μM compound

Row | percent inhibition of 5α-reductase activity, whole-cell assay, Type 1 [%] | Compound
26 | 22 | O=C1c2ccccc2C(=O)c2c1cc(S(=O)(=O)[O-])c(O)c2O.[Na+] [Alizarin red S]

Same assay, conditions: read-out: percent inhibition of 5α-reductase activity, whole-cell assay, Type 1; 100 μM compound

Row | Compound | inhibition at 100 µM [%]
27 | CCCCC/C=C\C/C=C\CCCCCCCC(=O)O [Linoleic Acid, Linoleic Acid C18:2 CIS 9,12] | 78
